Results from patent US20110053919A1, “Active Compound Combinations Having Insecticidal and Acaricidal Properties” (BAYER CROPSCIENE AG, priority 2006, published 2011).

Tests used:
Format in all cases: in vivo
[1] = system: green peach aphid (Myzus persicae); experiment: Myzus persicae test (spray treatment of infested cabbage leaves); details: single active compound
Excerpt: (§1) The expected action for a given combination of two active compounds can be calculated as follows, according to S. R. Colby, Weeds 15 (1967), 20-22:
(§2) • X is the kill rate, expressed as a percentage of the untreated control, when employing active compound A at an application rate of m g/ha or in a concentration of m ppm, • Y is the kill rate, expressed as a percentage of the untreated control, when employing active compound B at an application rate of n g/ha or in a concentration of n ppm and • E is the kill rate, expressed as a percentage of the untreated control, when employing active compounds A and B at application rates of m and n g/ha or in a concentration of m and n ppm, then
(§3) If the actual kill rate exceeds the calculated value, the kill of the combination is superadditive, i.e. a synergistic effect is present. In this case, the actually observed kill rate must exceed the value calculated using the above formula for the expected kill rate (E).
(§4) Solvents: 78 parts by weight of acetone • • 1.5 parts by weight of dimethylformamide Emulsifier: 0.5 part by weight of alkylaryl polyglycol ether
(§5) To produce a suitable preparation of active compound, 1 part by weight of active compound is mixed with the stated amounts of solvents and emulsifier, and the concentrate is diluted with emulsifier-containing water to the desired concentration.
Cabbage leaves (Brassica oleracea) which are heavily infested by the green peach aphid (Myzus persicae) are treated by spraying with the active compound preparation of the desired concentration.
After the desired period of time, the kill in % is determined. 100% means that all aphids have been killed; 0% means that none of the aphids have been killed. The kill rates determined are entered into Colby's formula.

[2] = system: larvae of the mustard beetle (Phaedon cochleariae); experiment: Phaedon cochleariae larvae test (sprayed cabbage leaves); details: 100 g/ha, single active compound
Excerpt: as §1, §2, §3
Phaedon cochleariae Larvae Test
as §4, §5
Cabbage leaves (Brassica oleracea) are treated by spraying with the active compound preparation of the desired concentration and are populated with larvae of the mustard beetle (Phaedon cochleariae) while the leaves are still moist.
After the desired period of time, the kill in % is determined. 100% means that all beetle larvae have been killed; 0% means that none of the beetle larvae have been killed. The kill rates determined are entered into Colby's formula.

[3] = system: larvae of the army worm (Spodoptera frugiperda); experiment: Spodoptera frugiperda larvae test (sprayed cabbage leaves); details: single active compound
Excerpt: as §1, §2, §3
Spodoptera frugiperda Larvae Test
as §4, §5
Cabbage leaves (Brassica oleracea) are treated by spraying with the active compound preparation of the desired concentration and are populated with larvae of the army worm (Spodoptera frugiperda) while the leaves are still moist.
After the desired period of time, the kill in % is determined. 100% means that all caterpillars have been killed; 0% means that none of the caterpillars have been killed. The kill rates determined are entered into Colby's formula.

[4] = system: greenhouse red spider mite (Tetranychus urticae); experiment: Tetranychus test, OP-resistant/spray treatment (bean leaf disks); details: 0.16 g/ha, single active compound
Excerpt: as §1, §2, §3
OP-Resistant/Spray Treatment
as §4, §5
Disks of bean leaves (Phaseolus vulgaris) which are infested by all stages of the greenhouse red spider mite (Tetranychus urticae) are sprayed with an active compound preparation of the desired concentration.
After the desired period of time, the activity in % is determined. 100% means that all spider mites have been killed; 0% means that none of the spider mites have been killed.

Compound | Kill in % after 1d ([1]; 0.8 g/ha) [%] | Kill in % after 2d [2] [%] | Kill in % after 2d ([3]; 20 g/ha) [%] | Kill in % after 6d [4] [%] | Kill in % after 1d ([1]; 100 g/ha) [%] | Kill in % after 1d ([1]; 4 g/ha) [%] | Kill in % after 1d ([1]; 20 g/ha) [%] | Kill in % after 2d ([3]; 100 g/ha) [%]
CC1=NNC(=O)N(/N=C/c2cccnc2)C1 [pymetrozine] | 40 |  |  |  |  |  |  | 
CC(C)N1C(=O)N(c2ccccc2)CS/C1=N\C(C)(C)C [buprofezin] |  | 0 |  |  |  |  |  | 
Cc1ccc(/N=C/N(C)/C=N/c2ccc(C)cc2C)c(C)c1 [amitraz] |  |  | 0 | 0 |  |  |  | 
N#CCNC(=O)c1cnccc1C(F)(F)F [flonicamid] |  | 0 |  |  | 30 |  |  | 
CCOC(=O)OC1=C(c2cc(C)ccc2C)C(=O)N[C@]12CC[C@@H](OC)CC2 [compound (II)] | 0 | 0 | 17 | 10 |  | 0 | 0 | 
CC(COc1ccc(Oc2ccccc2)cc1)Oc1ccccn1 (centres unmarked) [pyriproxifen, pyriproxyfen] |  |  |  |  | 0 |  |  | 0
CCOC(=O)OC1=C(c2cc(C)ccc2C)C(=O)NC12CCC(OC)CC2 (centres unmarked) [compound (IIa)] | 0 | 0 | 17 | 10 |  | 0 | 0 | 
